Measurements taken from ChEMBL document CHEMBL4190322, “Structure-based development of novel triazoles and related thiazolotriazoles as anticancer agents and Cdc25A/B phosphatase inhibitors. Synthesis, in vitro biological evaluation, molecular docking and in silico ADME-T studies” (Eur J Med Chem, 2017).
Activity calls are given as the source filed them. The calls are words filed in the database; no cut-off is given here.

How the values were obtained:
[1] = system: RPMI-8226; assay: Growth inhibition of human RPMI8226 cells at 10 uM after 48 hrs by SRB assay relative to control; type: functional; conditions: RPMI-8226, 48 h, read-out: GI
[2] = system: NCI-H226; assay: Growth inhibition of human NCI-H226 cells at 10 uM after 48 hrs by SRB assay relative to control; type: functional; conditions: for inhibition of growth at 10 µM: NCI-H226, 48 h, read-out: GI
[3] = system: NCI-H23; assay: Growth inhibition of human NCI-H23 cells at 10 uM after 48 hrs by SRB assay relative to control; type: functional; conditions: NCI-H23, 48 h, read-out: GI
[4] = system: LOX IMVI; assay: Growth inhibition of human LOXIMVI cells at 10 uM after 48 hrs by SRB assay relative to control; type: functional; conditions: read-out: GI
[5] = system: OVCAR-3; assay: Growth inhibition of human OVCAR3 cells at 10 uM after 48 hrs by SRB assay relative to control; type: functional; conditions: for inhibition of growth at 10 µM: OVCAR-3, 48 h, read-out: GI
[6] = system: CAKI-1; assay: Growth inhibition of human Caki1 cells at 10 uM after 48 hrs by SRB assay relative to control; type: functional; conditions: CAKI-1, 48 h, read-out: GI
[7] = system: UO-31; assay: Growth inhibition of human UO31 cells at 10 uM after 48 hrs by SRB assay relative to control; type: functional; conditions: UO-31, 48 h, read-out: GI
[8] = system: PC-3; assay: Growth inhibition of human PC3 cells at 10 uM after 48 hrs by SRB assay relative to control; type: functional; conditions: PC-3, 48 h, read-out: GI
[9] = system: MDA-MB-468; assay: Growth inhibition of human MDA-MB-468 cells at 10 uM after 48 hrs by SRB assay relative to control; type: functional; conditions: for inhibition of growth at 10 µM: MDA-MB-468, 48 h, read-out: GI
[10] = Cytotoxicity against human MCF10A cells after 24 hrs by MTT assay; type: cell-based, MCF-10A; conditions: read-out: LC50
[11] = target: T1, M-phase inducer phosphatase 1 (Homo sapiens, UniProt P30304); assay: Inhibition of human CDC25A using OMFP as substrate after 15 mins by fluorescence assay
T1 sequence (P30304 whole entry): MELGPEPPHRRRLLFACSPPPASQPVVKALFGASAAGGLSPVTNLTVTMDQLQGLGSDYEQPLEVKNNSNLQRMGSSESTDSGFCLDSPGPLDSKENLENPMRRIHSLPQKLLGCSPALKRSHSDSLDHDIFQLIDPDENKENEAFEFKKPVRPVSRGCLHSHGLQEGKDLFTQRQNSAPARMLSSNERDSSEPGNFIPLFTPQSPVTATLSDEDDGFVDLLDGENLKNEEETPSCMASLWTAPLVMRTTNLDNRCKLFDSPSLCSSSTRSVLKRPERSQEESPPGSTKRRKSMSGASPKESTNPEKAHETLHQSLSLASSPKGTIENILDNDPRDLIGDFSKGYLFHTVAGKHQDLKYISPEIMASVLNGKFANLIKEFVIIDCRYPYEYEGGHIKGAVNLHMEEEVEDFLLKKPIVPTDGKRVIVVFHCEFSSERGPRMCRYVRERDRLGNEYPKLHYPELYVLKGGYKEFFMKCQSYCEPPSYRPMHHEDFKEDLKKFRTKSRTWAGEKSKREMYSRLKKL

SMILES | inhibition of growth at 10 µM [1] [%] | growth inhibition (GI) [2] | inhibition of growth at 10 µM [3] [%] | inhibition of growth at 10 µM [4] [%] | growth inhibition (GI) [5] | inhibition of growth at 10 µM [6] [%] | inhibition of growth at 10 µM [7] [%] | inhibition of growth at 10 µM [8] [%] | growth inhibition (GI) [9] | CC50 at 24 h [10] [µM] | IC50 [11] [µM] | inhibition of growth at 10 µM [2] [%] | inhibition of growth at 10 µM [5] [%] | inhibition of growth at 10 µM [9] [%]
COc1ccc(Cc2nnc(SCC(=O)Nc3ccc(Cl)cc3)n2-c2ccccc2)cc1 | 20.6 | inactive | 8.87 | 11.9 | inactive | 13.7 | 27.2 | 45.2 | inactive | > 100 | 32.9 |  |  | 
COc1ccc(Cc2nnc(SCC(=O)c3ccc(Cl)cc3)n2-c2ccc(C)cc2)cc1 | 25 |  | 5.6 | 1.19 |  | 6.12 | 14 | 26 |  | > 100 | 20.5 | 3 | 4.28 | 11
COc1ccc(Cc2nnc(SCC(=O)Nc3ccc(Cl)cc3)n2Cc2ccccc2)cc1 | 22.5 |  | 9 | 12.2 |  | 21.4 | 31.7 | 47.3 | inactive | > 100 | 14.1 | 4.45 | 3 | 
COc1ccc(Cc2nnc(SCC(=O)c3ccc(Cl)cc3)n2Cc2ccccc2)cc1 | 26.4 |  | 13.6 | 6.87 |  | 23.7 | 34.7 | 51.8 |  | > 100 | 11.4 | 10 | 18.4 | 16
COc1ccc(Cc2nnc(SCC(=O)c3ccc(Cl)cc3)n2-c2ccccc2)cc1 | 13.7 |  | 8.1 | 3.4 |  | 13.5 | 20.1 | 36.2 |  | > 100 | 30.7 | 4 | 4.64 | 8.55
